Reference: ChEMBL document CHEMBL1201862, “PubChem BioAssay data set” (2004)
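Test compounds were applied to cells in 96-well plates for 48 hours at 5 doses. GI50: concentration for 50% inhibition of growth.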 Calls of active or inactive are those of the source. No stated cut-off is given here; in the data, active = GI50 up to about 1.1 µM and inactive = higher.

What was measured:
Experiment in all cases: growth of human tumour cells (NCI), 48 h
[1] = system: IGROV-1
[2] = system: HOP-62
[3] = system: MDA-MB-231
[4] = system: MCF7
[5] = system: SF-268
[6] = system: SF-539
[7] = system: UACC-62
[8] = system: OVCAR-3
[9] = system: RXF 393
[10] = system: ACHN
[11] = system: HCT-116
[12] = system: HOP-92
[13] = system: CAKI-1
[14] = system: U-251
[15] = system: PC-3
[16] = system: OVCAR-4
[17] = system: SK-MEL-28
[18] = system: MDA-MB-435
[19] = system: RPMI-8226
[20] = system: NCI-H460

| Compound | GI50 [1] | GI50 [2] | GI50 [3] | GI50 [4] | GI50 [5] | GI50 [6] | GI50 [7] | GI50 [8] | GI50 [9] | GI50 [10] | GI50 [11] | GI50 [12] | GI50 [13] | GI50 [14] | GI50 [15] | GI50 [16] | GI50 [17] | GI50 [18] | GI50 [19] | GI50 [20] |
| --- | --- | --- | --- | --- | --- | --- | --- | --- | --- | --- | --- | --- | --- | --- | --- | --- | --- | --- | --- | --- |
| CSC1=N/C(=C\c2ccc(C)cc2)C(=O)N1 | > 100 µM (inactive) | 39.5 µM (inactive) | 92.7 µM (inactive) | 50.8 µM (inactive) | 59.6 µM (inactive) | 41.9 µM (inactive) | 89.3 µM (inactive) | > 100 µM (inactive) | 26.4 µM (inactive) | > 100 µM (inactive) | 40.6 µM (inactive) | 50.9 µM (inactive) | > 100 µM (inactive) | 65.3 µM (inactive) | 94.6 µM (inactive) | > 100 µM (inactive) | > 100 µM (inactive) | > 100 µM (inactive) | > 100 µM (inactive) |  |
| COc1ccc(Oc2nc3ccc(C(F)(F)F)cc3nc2-c2ccccc2)cc1 | > 100 µM (inactive) | > 100 µM (inactive) | > 100 µM (inactive) | 65.5 µM (inactive) | > 100 µM (inactive) |  | > 100 µM (inactive) | > 100 µM (inactive) | 50.5 µM (inactive) | > 100 µM (inactive) | > 100 µM (inactive) | 49.9 µM (inactive) | > 100 µM (inactive) | > 100 µM (inactive) | > 100 µM (inactive) | > 100 µM (inactive) | > 100 µM (inactive) | > 100 µM (inactive) | 7.23 µM (inactive) | > 100 µM (inactive) |
| Cc1ccc2c(c1)Sc1ccc(/N=N/N(C)C)cc1N2C | > 100 µM (inactive) | > 100 µM (inactive) | > 100 µM (inactive) | 87.9 µM (inactive) | > 100 µM (inactive) |  | > 100 µM (inactive) | 53.2 µM (inactive) | > 100 µM (inactive) | > 100 µM (inactive) | > 100 µM (inactive) | 48.5 µM (inactive) | > 100 µM (inactive) | > 100 µM (inactive) | 71.1 µM (inactive) | > 100 µM (inactive) | > 100 µM (inactive) | > 100 µM (inactive) | 59.4 µM (inactive) | 54.7 µM (inactive) |
| CCOC(=O)c1sc(N)nc1N1CCCC1 | > 100 µM (inactive) | > 100 µM (inactive) | > 100 µM (inactive) | > 100 µM (inactive) |  | > 100 µM (inactive) | > 100 µM (inactive) | > 100 µM (inactive) | 0.942 µM (active) | > 100 µM (inactive) | > 100 µM (inactive) | > 100 µM (inactive) | > 100 µM (inactive) | > 100 µM (inactive) | > 100 µM (inactive) | > 100 µM (inactive) | > 100 µM (inactive) | > 100 µM (inactive) | > 100 µM (inactive) | > 100 µM (inactive) |
| S=C1N=C2C(=N1)n1c3c(c4ccccc41)CCCC23 (stereo not drawn) | 32.6 µM (inactive) | 46 µM (inactive) | 66.4 µM (inactive) | 24 µM (inactive) | 49 µM (inactive) | 43.3 µM (inactive) | 59.2 µM (inactive) | 52.4 µM (inactive) | > 100 µM (inactive) | > 100 µM (inactive) | 35.2 µM (inactive) | > 100 µM (inactive) | 42.4 µM (inactive) | 35 µM (inactive) | 48.5 µM (inactive) | 67.5 µM (inactive) | > 100 µM (inactive) | 55.7 µM (inactive) | 30 µM (inactive) | 38.6 µM (inactive) |
| CCN(CC)CCNC(=O)c1cc2cc(NC(=O)c3cc4cc([N+](=O)[O-])ccc4[nH]3)ccc2[nH]1 | 18.1 µM (inactive) | > 77.1 µM (inactive) | 3.83 µM (inactive) | 2.39 µM (inactive) | 13.6 µM (inactive) | 6.43 µM (inactive) | 32 µM (inactive) | > 40.6 µM (inactive) | > 43.9 µM (inactive) | 35.1 µM (inactive) | 2.85 µM (inactive) | 11 µM (inactive) | > 35.6 µM (inactive) | 1.84 µM (inactive) | > 39 µM (inactive) | > 50.4 µM (inactive) | 25.2 µM (inactive) | 37.5 µM (inactive) | 1.82 µM (inactive) | 2.92 µM (inactive) |
| Nc1ccc(-c2nc3ccc(Cc4ccc5nc(-c6ccc(N)cc6)oc5c4)cc3o2)cc1 |  |  | > 100 µM (inactive) | > 100 µM (inactive) | > 100 µM (inactive) | > 100 µM (inactive) | > 100 µM (inactive) |  | > 100 µM (inactive) | > 100 µM (inactive) | > 100 µM (inactive) | 47.4 µM (inactive) | > 100 µM (inactive) | > 100 µM (inactive) | > 100 µM (inactive) | > 100 µM (inactive) | > 100 µM (inactive) | 82.4 µM (inactive) | > 100 µM (inactive) | > 100 µM (inactive) |
